The values below are quoted from earlier work in patent publication US20080044462A1 (Collegium Pharmaceutical, Inc. Delaware, priority 2006, published 2008).

For the series the following is noted: background statement, no test described.

For the compound `CC(NC(C)(C)C)C(=O)c1cccc(Cl)c1` (stereo not shown) [free base form of bupropion, 1-(3-chlorophenyl)-2[(1,1,dimethylethyl)amino]-1-propanone], the “stability in the presence of oxygen” value is recorded as “highly unstable”.
